The values that follow come from patent US8055452B2, “Identification, monitoring and treatment of disease and characterization of biological condition using gene expression profiles” (Life Technologies Corporation, priority 2001, dated 2011).

The test system of series [1] is inflammation index (Inflammation Gene Expression Panel loci). Briefly: Inflammation index in rheumatoid arthritis patients under therapy. The format is in vivo, human. The source says:
FIG. 17A further illustrates the consistency of inflammatory gene expression, illustrated here with respect to 7 loci of (of the Inflammation Gene Expression Panel of Table 1), in a population of 44 normal, undiagnosed blood donors. For each individual locus is shown the range of values lying within ±2 standard deviations of the mean expression value, which corresponds to 95% of a normally distributed population. Notwithstanding the great width of the confidence interval (95%), the measured gene expression value (ΔCT)—remarkably—still lies within 10% of the mean, regardless of the expression level involved. As described in further detail below, for a given biological condition an index can be constructed to provide a measurement of the condition. This is possible as a result of the conjunction of two circumstances: (i) there is a remarkable consistency of Gene Expression Profiles with respect to a biological condition across a population and (ii) there can be employed procedures that provide substantially reproducible measurement of constituents in a Gene Expression Panel giving rise to a Gene Expression Profile, under measurement conditions wherein specificity and efficiencies of amplification for all constituents of the panel are substantially similar and which therefore provides a measurement of a biological condition. Accordingly, a function of the expression values of representative constituent loci of FIG. 17A is here used to generate an inflammation index value, which is normalized so that a reading of 1 corresponds to constituent expression values of healthy subjects, as shown in the right-hand portion of FIG. 17A.
In FIG. 17B, an inflammation index value was determined for each member of a population of 42 normal undiagnosed blood donors, and the resulting distribution of index values, shown in the figure, can be seen to approximate closely a normal distribution, notwithstanding the relatively small population size. The values of the index are shown relative to a 0-based median, with deviations from the median calibrated in standard deviation units. Thus […] of the population lies within +1 and −1 of a 0 value.
FIG. 17C illustrates the use of the same index as FIG. 17B, where the inflammation median for a normal population has been set to zero and both normal and diseased subjects are plotted in standard deviation units relative to that median. An inflammation index value was determined for each member of a normal, undiagnosed population of 70 individuals (black bars). The resulting distribution of index values, shown in FIG. 17C, can be seen to approximate closely a normal distribution. Similarly, index values were calculated for individuals from two diseased population groups, (1) rheumatoid arthritis patients treated with methotrexate (MTX) who are about to change therapy to more efficacious drugs (e.g., TNF inhibitors) (hatched bars), and (2) rheumatoid arthritis patients treated with disease modifying anti-rheumatoid drugs (DMARDS) other than MTX, who are about to change therapy to more efficacious drugs (e.g., MTX). […] This figure thus illustrates the utility of an index to derived from Gene Expression Profile data to evaluate disease status and to provide an objective and quantifiable treatment objective. When these two populations were treated appropriately, index values from both populations returned to a more normal distribution (data not shown here).
This subject in fact was also on a regimen of an anti-inflammation steroid (prednisone) that was being tapered; within approximately one week after the inflammation index was sampled, the subject experienced a significant flare of clinical symptoms.

Series [2] relates to IL1A, IL1B, TNF, IFNG and IL10. Briefly: Acute Inflammation Index from whole blood gene expression of treated human subject. The format is in vivo. To be noted: single patient with optic neuritis; oral prednisone at 60 mg per day tapered to 10 mg per day, after IV steroid. The source says:
(§1) For measuring the amount of a particular RNA in a sample, we have used methods known to one of ordinary skill in the art to extract and quantify transcribed RNA from a sample with respect to a constituent of a Gene Expression Panel. (See detailed protocols below. Also see PCT application publication number WO 98/24935 herein incorporated by reference for RNA analysis protocols). Briefly, RNA is extracted from a sample such as a tissue, body fluid, or culture medium in which a population of a subject might be growing. For example, cells may be lysed and RNA eluted in a suitable solution in which to conduct a DNAse reaction. First strand synthesis may be performed using a reverse transcriptase. Gene amplification, more specifically quantitative PCR assays, can then conducted and the gene of interest size calibrated against a marker such as 18S rRNA (Hirayama et al., Blood 92, 1998: 46-52). Samples are measured in multiple duplicates, for example, 4 replicates. Relative quantitation of the mRNA is determined by the difference in threshold cycles between the internal control and the gene of interest In an embodiment of the invention, quantitative PCR is performed using amplification, reporting agents and instruments such as those supplied commercially by Applied Biosystems (Foster City, Calif.). […]

The subject of series [3] is Inflammation Gene Expression Panel of Table 1 (24 of 48 loci). Briefly: Inflammation Gene Expression Panel in whole blood after single oral dose of prednisone. As to conditions: single human subject, single 60 mg oral dose. The format is in vivo.
Description: as §1

Series [4] has as its system 5 genes of the Inflammation Gene Expression Panel. Briefly: Whole blood samples after prednisone dose, challenged with lipopolysaccharide, gene expression profile. Format: in vivo, human. To be noted: challenged with 0.1 ng/ml lipopolysaccharide. As for the experimental part: The samples were taken at the time of administration (t=0) of the prednisone, then at two and 24 hours after such administration. Each whole blood sample was challenged by the addition of 0.1 ng/ml of lipopolysaccharide (a Gram-negative endotoxin) and a gene expression profile of the sample, post-challenge, was determined.

In series [5] the test system is inflammation index (Inflammation Gene Expression Panel loci). As to conditions: studies have shown; cited from earlier work.
For series [6] the test system is unchanged. Briefly: Inflammation index in subject with inflammatory bowel disease. As to conditions: single subject with inflammatory bowel disease. The format is in vivo, human. An excerpt:
FIG. 24 illustrates use of the inflammation index for assessment of a single subject suffering from inflammatory bowel disease, for whom treatment with Remicade was initiated in three doses. […] Again, the index, besides providing a measure of biological condition, is here used to measure the effectiveness of therapy (Remicade), as well as to provide a target for therapeutic intervention in terms of both dose and schedule.

Where [7] appears, read: 10 stable rheumatoid arthritis patients treated with Enbrel (FIG. 22).

Take `CN(Cc1cnc2nc(N)nc(N)c2n1)c1ccc(C(=O)N[C@@H](CCC(=O)O)C(=O)O)cc1` [methotrexate]: the inflammation index entry in series [1] (10 stable rheumatoid arthritis patients treated with methotrexate (FIG. 21)) was “elevated compared to normal”. Also, the “inflammation index values in comparison to the normal distribution” value in series [1] (rheumatoid arthritis patients treated with MTX who are about to change therapy (FIG. 17C)) is listed as “skewed upward”.

For `C[C@]12C=CC(=O)C=C1CC[C@@H]1[C@@H]2C(=O)C[C@@]2(C)[C@H]1CC[C@]2(O)C(=O)CO` [prednisone], the acute inflammation index result in series [2] was “goes up”. The “inflammatory gene expression relative to baseline” value in series [3] (2 hr post dose) is “decreased expression of most of inflammation-related gene loci”. Also, the “inflammatory gene expression relative to baseline” value in series [3] (24 hr post dose, loci reduced at 2 hours) is listed as “elevated gene expression levels”. Further, in series [4] (24 hours post administration), the “inhibitory effect on gene expression of the 5 loci” value is listed as “no longer apparent” and the “number of the 5 loci with gene expression higher than at t=0 (rebound effect)” value was 3. Besides, the “gene expression of the 5 loci in relation to t=0” value in series [4] (two-hour sample) is listed as “dramatically reduced gene expression”.

Consider Remicade: another TNF inhibitor, for which, in series [5], the “infections in treated subjects” value was “associated with serious infections in some subjects”. In addition, the inflammation index result in series [1] (10 stable rheumatoid arthritis patients treated with Remicade (FIG. 23), all but one of the patients) is listed as “at or below normal”; in series [6] (24 hours after the first treatment), “returned to the normal range”; in series [6] (just prior to the second dose) it was “elevated”; in series [6] (prior to the third dose), “in the normal range”. Also, the “inflammation index suggesting immunosuppressive response” value in series [1] (two of the 10 rheumatoid arthritis patients treated with Remicade (FIG. 23)) was “abnormally low inflammation index”.

Regarding Enbrel, in series [1] (setting [7]), the inflammation index entry is on record as “comes much closer to normal” and the “patients with inflammation index in the normal range” value is recorded as 80%.
